Measured values as given in US20260132132A1, “3A,4,5,6-TETRAHYDRO-1 H-PYRAZOLO[3,4-C]PYRIDIN-7(7AH)-ONE DERIVATIVES AS FACTOR XIIA INHIBITORS” (KALVISTA PHARMACEUTICALS LIMITED, priority 2022, published 2026).
pIC50: −log10 of the molar value.

Tests used:
[1] = molecular target: T1, Human Factor XIIa (hFXIIa) (Homo sapiens, UniProt P00748); test: Determination of Human Factor XIIa (hFXIIa) inhibition, fluorogenic substrate IC50 assay; assay type: biochemical; details: fluorogenic substrate H-DPro-Phe-Arg-AFC at Km, 25° C., read-out: Human FXIIa IC50
T1 construct: purchased Enzyme Research Laboratories
T1 sequence (P00748 373-615 limits assumed): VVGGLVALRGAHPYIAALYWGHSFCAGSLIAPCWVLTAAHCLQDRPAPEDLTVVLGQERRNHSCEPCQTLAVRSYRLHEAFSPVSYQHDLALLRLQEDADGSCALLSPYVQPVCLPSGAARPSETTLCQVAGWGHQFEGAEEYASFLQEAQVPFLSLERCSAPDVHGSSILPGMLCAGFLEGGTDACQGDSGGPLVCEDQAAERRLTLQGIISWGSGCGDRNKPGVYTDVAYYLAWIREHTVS
T1 sequence (P00748 20-372 partner limits assumed): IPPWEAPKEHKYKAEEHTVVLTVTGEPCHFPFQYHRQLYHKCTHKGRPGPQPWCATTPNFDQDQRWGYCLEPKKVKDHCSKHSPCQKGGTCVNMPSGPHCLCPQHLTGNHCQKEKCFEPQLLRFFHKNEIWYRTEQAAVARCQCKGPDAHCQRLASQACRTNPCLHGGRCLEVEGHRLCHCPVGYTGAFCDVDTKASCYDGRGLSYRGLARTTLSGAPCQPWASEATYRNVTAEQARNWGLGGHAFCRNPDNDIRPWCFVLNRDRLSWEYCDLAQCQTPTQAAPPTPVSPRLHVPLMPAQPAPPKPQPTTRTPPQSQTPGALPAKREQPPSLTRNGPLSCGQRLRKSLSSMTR
Experimental: Determination of Human Factor XIIa (hFXIIa) inhibition
The Km for the cleavage of the substrate by hFXIIa was determined by standard transformation of the Michaelis-Menten equation, with subsequent inhibition assays performed at substrate Km concentration.

[2] = molecular target: FXa (Homo sapiens, UniProt P00742); test: Related protease inhibition: FXa, fluorogenic substrate; assay type: biochemical; details: fluorogenic substrate at Km, 25° C.; H1-H3 = % activity at 40 μM
Chain of FXa (P00742 235-488 limits assumed): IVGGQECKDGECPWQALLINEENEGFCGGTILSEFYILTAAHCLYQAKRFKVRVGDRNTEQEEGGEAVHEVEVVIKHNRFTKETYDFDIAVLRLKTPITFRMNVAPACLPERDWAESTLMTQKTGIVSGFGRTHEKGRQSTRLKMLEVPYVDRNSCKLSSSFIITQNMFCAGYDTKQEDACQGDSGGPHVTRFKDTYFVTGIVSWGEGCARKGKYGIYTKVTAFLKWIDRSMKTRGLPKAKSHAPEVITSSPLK
Chain of FXa (P00742 41-179 partner limits assumed): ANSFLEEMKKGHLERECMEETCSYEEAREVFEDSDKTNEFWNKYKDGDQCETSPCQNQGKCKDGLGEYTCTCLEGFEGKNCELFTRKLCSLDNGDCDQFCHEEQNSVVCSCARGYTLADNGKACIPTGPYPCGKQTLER
Experimental: Human serine protease enzyme Plasma Kallikrein, KLK1, FXa, Plasmin, Thrombin and Trypsin were assayed for enzymatic activity using an appropriate fluorogenic substrate at Km concentration, FXIa at fixed substrate concentration of 100 μM and various concentrations of the test compound.

| Compound | pIC50 [1] | pIC50 [2] |
| --- | --- | --- |
| COc1cncc(CNC(=O)c2nn(-c3cccc(Cl)c3)c3c2CCN(c2ccc4c(c2)CN(CCO)CC4)C3=O)c1 [Example 1141, 1-(3-chlorophenyl)-6-(2-(2-hydroxyethyl)-1,2,3,4-tetrahydroisoquinolin-7-yl)-N-((5-methoxypyridin-3-yl)methyl)-7-oxo-4,5,6,7-tetrahydro-1H-pyrazolo[3,4-c]pyridine-3-carboxamide] | 7.00 to 8.00 | 5.00 to 5.52 |
| O=C(NCC1CC1(F)F)c1nn(-c2cccc(Cl)c2)c2c1CCN(c1ccc3c(c1)CN(CCO)CC3)C2=O (centres unmarked) [Example 1142, 1-(3-chlorophenyl)-N-((2,2-difluorocyclopropyl)methyl)-6-(2-(2-hydroxyethyl)-1,2,3,4-tetrahydroisoquinolin-7-yl)-7-oxo-4,5,6,7-tetrahydro-1H-pyrazolo[3,4-c]pyridine-3-carboxamide] | 6.52 to 7.00 | < 4.40 |
| O=C(NCC1CC1)c1nn(-c2cccc(Cl)c2)c2c1CCN(c1ccc3c(c1)CN(CCO)CC31CC1)C2=O [Example 1143, 1-(3-chlorophenyl)-N-(cyclopropylmethyl)-6-(2′-(2-hydroxyethyl)-2′,3′-dihydro-1′H-spiro[cyclopropane-1,4′-isoquinolin]-7′-yl)-7-oxo-4,5,6,7-tetrahydro-1H-pyrazolo[3,4-c]pyridine-3-carboxamide] | 6.52 to 7.00 | 5.00 to 5.52 |
| Cc1ccncc1CNC(=O)c1nn(-c2cccc(Cl)c2)c2c1CCN(c1ccc3c(c1)CN(CCO)CC31CC1)C2=O [Example 1144, 1-(3-Chlorophenyl)-6-(2′-(2-hydroxyethyl)-2′,3′-dihydro-1′H-spiro[cyclopropane-1,4′-isoquinolin]-7′-yl)-N-((4-methylpyridin-3-yl)methyl)-7-oxo-4,5,6,7-tetrahydro-1H-pyrazolo[3,4-c]pyridine-3-carboxamide] | 7.00 to 8.00 | 5.52 to 6.00 |
| C[C@@H](NC(=O)c1nn(-c2cccc(Cl)c2)c2c1CCN(c1ccc3c(c1)CN(CCO)CC3)C2=O)c1cccnc1 [Example 1145, (R)-1-(3-chlorophenyl)-6-(2-(2-hydroxyethyl)-1,2,3,4-tetrahydroisoquinolin-7-yl)-7-oxo-N-(1-(pyridin-3-yl)ethyl)-4,5,6,7-tetrahydro-1H-pyrazolo[3,4-c]pyridine-3-carboxamide] | 6.52 to 7.00 | 4.40 to 5.00 |
| O=C(NCc1ccn(C2CC2)n1)c1nn(-c2cccc(Cl)c2)c2c1CCN(c1ccc3c(c1)CN(CCO)CC3)C2=O [Example 1146, 1-(3-chlorophenyl)-N-((1-cyclopropyl-1H-pyrazol-3-yl)methyl)-6-(2-(2-hydroxyethyl)-1,2,3,4-tetrahydroisoquinolin-7-yl)-7-oxo-4,5,6,7-tetrahydro-1H-pyrazolo[3,4-c]pyridine-3-carboxamide] | 7.00 to 8.00 | 4.40 to 5.00 |
| Cc1ccc(CNC(=O)c2nn(-c3cccc(Cl)c3)c3c2CCN(c2ccc4c(c2)CN(CCO)CC4)C3=O)cn1 [Example 1147, 1-(3-chlorophenyl)-6-(2-(2-hydroxyethyl)-1,2,3,4-tetrahydroisoquinolin-7-yl)-N-((6-methylpyridin-3-yl)methyl)-7-oxo-4,5,6,7-tetrahydro-1H-pyrazolo[3,4-c]pyridine-3-carboxamide] | 7.00 to 8.00 | 4.40 to 5.00 |
| Cc1ccncc1CNC(=O)c1nn(-c2cccc(Cl)c2)c2c1CCN(c1ccc3c(c1)CN(CCO)C[C@@H]3C)C2=O [Example 1148, (R)-1-(3-Chlorophenyl)-6-(2-(2-hydroxyethyl)-4-methyl-1,2,3,4-tetrahydroisoquinolin-7-yl)-N-((4-methylpyridin-3-yl)methyl)-7-oxo-4,5,6,7-tetrahydro-1H-pyrazolo[3,4-c]pyridine-3-carboxamide] | 6.52 to 7.00 | 4.40 to 5.00 |
| CCN1CCc2ccc(N3CCc4c(C(=O)NCc5cc(C6CC6)n[nH]5)nn(-c5cccc(Cl)c5)c4C3=O)cc2C1 [Example 1150, 1-(3-chlorophenyl)-N-((3-cyclopropyl-1H-pyrazol-5-yl)methyl)-6-(2-ethyl-1,2,3,4-tetrahydroisoquinolin-7-yl)-7-oxo-4,5,6,7-tetrahydro-1H-pyrazolo[3,4-c]pyridine-3-carboxamide] | 7.00 to 8.00 | 5.00 to 5.52 |
| O=C(NCc1ncco1)c1nn(-c2cccc(Cl)c2)c2c1CCN(c1ccc3c(c1)CN(CCO)CC3)C2=O [Example 1151, 1-(3-chlorophenyl)-6-(2-(2-hydroxyethyl)-1,2,3,4-tetrahydroisoquinolin-7-yl)-N-(oxazol-2-ylmethyl)-7-oxo-4,5,6,7-tetrahydro-1H-pyrazolo[3,4-c]pyridine-3-carboxamide] | 6.52 to 7.00 | 4.40 to 5.00 |
| C[C@H]1CN(CCO)Cc2cc(N3CCc4c(C(=O)NCC5CC5)nn(-c5cccc(Cl)c5)c4C3=O)ccc21 [Example 1152, (R)-1-(3-chlorophenyl)-N-(cyclopropylmethyl)-6-(2-(2-hydroxyethyl)-4-methyl-1,2,3,4-tetrahydroisoquinolin-7-yl)-7-oxo-4,5,6,7-tetrahydro-1H-pyrazolo[3,4-c]pyridine-3-carboxamide] | 6.00 to 6.52 | < 4.40 |
| CCN1Cc2cc(N3CCc4c(C(=O)NCC5CC5)nn(-c5cccc(Cl)c5)c4C3=O)ccc2[C@@H](C)C1 [Example 1153, (R)-1-(3-chlorophenyl)-N-(cyclopropylmethyl)-6-(2-ethyl-4-methyl-1,2,3,4-tetrahydroisoquinolin-7-yl)-7-oxo-4,5,6,7-tetrahydro-1H-pyrazolo[3,4-c]pyridine-3-carboxamide] | 6.00 to 6.52 | 4.40 to 5.00 |
| O=C(NCc1cnccc1Cl)c1nn(-c2cccc(Cl)c2)c2c1CCN(c1ccc3c(c1)CN(CCO)CC3)C2=O [Example 1154, 1-(3-chlorophenyl)-N-((4-chloropyridin-3-yl)methyl)-6-(2-(2-hydroxyethyl)-1,2,3,4-tetrahydroisoquinolin-7-yl)-7-oxo-4,5,6,7-tetrahydro-1H-pyrazolo[3,4-c]pyridine-3-carboxamide] | 7.00 to 8.00 | 4.40 to 5.00 |
| Cn1cc(Cl)c(CNC(=O)c2nn(-c3cccc(Cl)c3)c3c2CCN(c2ccc4c(c2)CN(CCO)CC4)C3=O)n1 [Example 1155, N-((4-chloro-1-methyl-1H-pyrazol-3-yl)methyl)-1-(3-chlorophenyl)-6-(2-(2-hydroxyethyl)-1,2,3,4-tetrahydroisoquinolin-7-yl)-7-oxo-4,5,6,7-tetrahydro-1H-pyrazolo[3,4-c]pyridine-3-carboxamide] | 7.00 to 8.00 | 4.40 to 5.00 |
| COCc1cc(CNC(=O)c2nn(-c3cccc(Cl)c3)c3c2CCN(c2ccc4c(c2)CN(CCO)CC4)C3=O)[nH]n1 [Example 1156, 1-(3-chlorophenyl)-6-(2-(2-hydroxyethyl)-1,2,3,4-tetrahydroisoquinolin-7-yl)-N-((3-(methoxymethyl)-1H-pyrazol-5-yl)methyl)-7-oxo-4,5,6,7-tetrahydro-1H-pyrazolo[3,4-c]pyridine-3-carboxamide] | 6.52 to 7.00 | 4.40 to 5.00 |
| Cc1cn(C)nc1CNC(=O)c1nn(-c2cccc(Cl)c2)c2c1CCN(c1ccc3c(c1)CN(CCO)CC3)C2=O [Example 1157, 1-(3-chlorophenyl)-N-((1,4-dimethyl-1H-pyrazol-3-yl)methyl)-6-(2-(2-hydroxyethyl)-1,2,3,4-tetrahydroisoquinolin-7-yl)-7-oxo-4,5,6,7-tetrahydro-1H-pyrazolo[3,4-c]pyridine-3-carboxamide] | 7.00 to 8.00 | 4.40 to 5.00 |
| CCN1Cc2cc(N3CCc4c(C(=O)NCc5cnccc5C)nn(-c5cccc(Cl)c5)c4C3=O)ccc2[C@@H](C)C1 [Example 1158, (R)-1-(3-chlorophenyl)-6-(2-ethyl-4-methyl-1,2,3,4-tetrahydroisoquinolin-7-yl)-N-((4-methylpyridin-3-yl)methyl)-7-oxo-4,5,6,7-tetrahydro-1H-pyrazolo[3,4-c]pyridine-3-carboxamide] | 7.00 to 8.00 | 4.40 to 5.00 |
| Cc1ccncc1CNC(=O)c1nn(-c2cccc(Cl)c2)c2c1CCN(c1ccc3c(c1)C(=O)N(C)CC3)C2=O [Example 1159, 1-(3-Chlorophenyl)-6-(2-methyl-1-oxo-1,2,3,4-tetrahydroisoquinolin-7-yl)-N-((4-methylpyridin-3-yl)methyl)-7-oxo-4,5,6,7-tetrahydro-1H-pyrazolo[3,4-c]pyridine-3-carboxamide] | 7.00 to 8.00 | < 4.40 |
| COc1cccnc1CNC(=O)c1nn(-c2cccc(Cl)c2)c2c1CCN(c1ccc3c(c1)CN(CCO)CC3)C2=O [Example 1160, 1-(3-chlorophenyl)-6-(2-(2-hydroxyethyl)-1,2,3,4-tetrahydroisoquinolin-7-yl)-N-((3-methoxypyridin-2-yl)methyl)-7-oxo-4,5,6,7-tetrahydro-1H-pyrazolo[3,4-c]pyridine-3-carboxamide] | 7.00 to 8.00 | < 4.40 |
